Results: patent publication US20210204544A1, “AGROCHEMICAL FORMULATIONS CONTAINING A POLYMERIC CRYSTAL GROWTH INHIBITOR” (priority 2018, published 2021)

Test: Crystal growth of micronized fluopyram crystals suspended in water, with or without polymeric crystal growth inhibitor, on accelerated aging (FIG. 1)
Format: physicochemical
Details: 54° C.; observed at 4 days, 35 days, then additional 2 weeks cycling -20° C./40° C.; Rhodoline 111 at 3% w/w, HPMC at 0.2% w/w
Experimental: FIG. 1 depicts the effect of polymeric crystal growth inhibitor on active ingredient while suspended in water. […] Polymeric crystal growth inhibitors were evaluated by suspending micronized fluopyram active ingredient crystal in water.

O=C(NCCc1ncc(C(F)(F)F)cc1Cl)c1ccccc1C(F)(F)F [fluopyram, N-[2-[3-chloro-5-(trifluoromethyl)pyridin-2-yl]ethyl]-2-(trifluoromethyl)benzamide]
crystal growth of fluopyram crystals suspended in water: severe needle-shaped crystal growth
